From patent publication US11740249B2, “Recognition of cellular target binding by a bioactive agent using intracellular bioluminescence resonance energy transfer” (Promega Corporation, priority 2012, dated 2023)

Legend:
[1] = target: T1, NANOLUC-HDAC6 fusion protein (Homo sapiens, UniProt Q9UBN7); test: Intracellular BRET tracer binding, NANOLUC-HDAC6 in HEK293 cells (Example 1); settings: live HEK293 cells, compared to SAHA-TMR (PBI-4967)
T1 construct: expressed in transfected cells; host or cells: HEK293
T1 sequence (Q9UBN7 with tags, fused parts or gaps): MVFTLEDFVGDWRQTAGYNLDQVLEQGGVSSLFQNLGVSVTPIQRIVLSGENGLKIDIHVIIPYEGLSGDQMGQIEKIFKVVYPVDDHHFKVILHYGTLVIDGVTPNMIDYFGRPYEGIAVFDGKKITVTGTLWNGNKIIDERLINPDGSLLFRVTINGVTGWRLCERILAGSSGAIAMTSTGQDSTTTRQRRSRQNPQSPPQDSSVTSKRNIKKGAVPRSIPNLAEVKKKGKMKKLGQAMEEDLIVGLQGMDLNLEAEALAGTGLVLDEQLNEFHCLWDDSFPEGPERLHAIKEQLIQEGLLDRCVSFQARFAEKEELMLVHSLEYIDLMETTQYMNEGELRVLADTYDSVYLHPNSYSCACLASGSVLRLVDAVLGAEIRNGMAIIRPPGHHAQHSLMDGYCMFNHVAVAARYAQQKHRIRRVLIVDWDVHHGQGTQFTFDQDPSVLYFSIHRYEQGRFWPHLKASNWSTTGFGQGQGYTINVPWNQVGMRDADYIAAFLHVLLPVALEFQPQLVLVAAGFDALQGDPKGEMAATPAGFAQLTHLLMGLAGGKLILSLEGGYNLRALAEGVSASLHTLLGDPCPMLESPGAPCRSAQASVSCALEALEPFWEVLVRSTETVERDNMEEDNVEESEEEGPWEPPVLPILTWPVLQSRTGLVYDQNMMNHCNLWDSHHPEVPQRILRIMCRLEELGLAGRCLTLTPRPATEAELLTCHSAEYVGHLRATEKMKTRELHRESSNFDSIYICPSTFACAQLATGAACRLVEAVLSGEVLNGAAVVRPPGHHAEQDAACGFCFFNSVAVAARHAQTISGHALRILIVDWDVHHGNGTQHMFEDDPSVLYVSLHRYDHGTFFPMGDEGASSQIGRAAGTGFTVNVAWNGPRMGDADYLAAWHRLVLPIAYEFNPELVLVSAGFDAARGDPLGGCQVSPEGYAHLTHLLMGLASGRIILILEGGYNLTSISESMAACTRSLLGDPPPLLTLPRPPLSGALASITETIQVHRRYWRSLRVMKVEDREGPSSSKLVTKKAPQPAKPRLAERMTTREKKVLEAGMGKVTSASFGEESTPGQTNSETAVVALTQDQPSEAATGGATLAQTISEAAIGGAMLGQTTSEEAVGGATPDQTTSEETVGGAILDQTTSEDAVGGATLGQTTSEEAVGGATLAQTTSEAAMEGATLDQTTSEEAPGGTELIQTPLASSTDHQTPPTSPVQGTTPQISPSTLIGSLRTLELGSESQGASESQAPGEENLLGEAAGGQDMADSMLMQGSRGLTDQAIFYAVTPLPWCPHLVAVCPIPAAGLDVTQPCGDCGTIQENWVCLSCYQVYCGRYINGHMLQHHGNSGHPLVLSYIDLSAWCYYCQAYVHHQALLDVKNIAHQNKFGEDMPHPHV
Procedure: In this example, conjugates of suberoylanilide hydroxamic acid (SAHA), an inhibitor of histone deacetylase 6 (HDAC6), and a PBI dye (SAHA-TOM (PBI-4968); See FIGS. 8A-B) or standard dye (SAHA-TAMRA (PBI-4967); See FIGS. 8A-B) were utilized in an intracellular BRET assay using a NANOLUC-HDAC fusion protein (SEQ ID NO: 3).
HEK293 cells were transfected using FuGene HD (Promega Corp.) with plasmid DNA encoding a NANOLUC-HDAC6 fusion protein. NANOLUC-HDAC6 DNA was diluted 1:1000 with a promoterless carrier DNA (pGEM3Z) to yield a final concentration of 50 ng/well total DNA in 96-well plate format (at a seeding density of 20,000 cells/well). Twenty-four hours post-transfection, cells were then incubated with serially-diluted tracer in the presence or absence of a molar excess of unlabeled SAHA (as a specificity control). Following equilibration with the drug tracers, furimazine (a coelenterazine derivative substrate for NANOLUC; Promega Corp.) was added at a concentration of 20 uM, and BRET was quantified on a Varioskan luminometer. The specific BRET signal was calculated by subtracting the non-specific signal (in the presence of unlabeled SAHA) from the signal generated from the SAHA tracer alone.

NANOLUC-HDAC6 = target: T2, NANOLUC-HDAC6 (Homo sapiens, UniProt Q9UBN7); test: BRET compound panel screen by competitive displacement of SAHA-TOM, NANOLUC-HDAC6 in HEK293 cells (Example 15); format: binding; settings: 1 uM SAHA-TOM (PBI-4968), 2 h
T2 construct: expressed in transfected cells; host or cells: HEK293
T2 sequence (Q9UBN7 with tags, fused parts or gaps): as above

specific BRET signal ([1]; NANOLUC-HDAC6 DNA diluted 1:1000) | EC50 value for binding within living cells [1] | Structure (SMILES) | binding efficiency to HDAC6 (competitive displacement of tracer) (NANOLUC-HDAC6)
superior, specific BRET signal | left-shifted | O=C(CCCCCCC(=O)Nc1ccc(CNC(=O)c2ccc(C(=O)O)c(C3=c4cc5c6c(c4Oc4c3cc3c7c4CCCN7CCCC3)CCC[N+]=6CCCC5)c2)cc1)NO [PBI-4968] | –
– | – | O=C(CCCCCCC(=O)Nc1ccccc1)NO [SAHA, suberoylanilide hydroxamic acid] | high binding efficiency
